# Reference: US12351570B2 (MERCK PATENT GMBH, priority 2018, dated 2025)
# Where two headings read alike, the source gives them in different places.
# Legend:
# [1] = tested on: MIA PaCa-2 cells; assay: Extracellular lactate production inhibition after 4 h, MIA PaCa-2; settings: Homo sapiens, MIA PaCa-2, read-out: IC50 (MiaPACa)
# Method: (§1) Extracellular Lactate Production Inhibition after 4 h
# (§2) Cells were plated in growth media supplemented with 10% FBS, followed by overnight recovery at 37° C., 5% CO2. […] Plates were then moved for 4 h incubation at 37° C., 5% CO2 with subsequent 20 μl media transfer to empty 384-well transparent plates. […] Plates were short-spun and measured kinetically in absorbance mode (530 nm, 12 min measurement time with 2-minute intervals between subsequent readouts at 30° C.). Differences in the signal between T8 min and T0min were normalized to vehicle (cells w/ 0.25% DMSO) and quasi-positive (LCIS buffer w/ 0.25% DMSO) controls and plotted against logarithmically-transformed test compound concentrations with fitting the 4-parameter model in GraphPad Prism software.
# [2] = tested on: MDA-MB-231 cells; assay: Extracellular lactate production inhibition after 4 h, MDA-MB-231; settings: Homo sapiens
# [3] = tested on: SNU398 cells; assay: Extracellular lactate production inhibition after 4 h, SNU398; settings: Homo sapiens, SNU-398, read-out: IC50 (SNU-398)
# Method: as §1, §2
# [4] = MDA-MB-231, read-out: IC50 (MDA-MB231)
Compound,IC50 [1],IC50 ([2]; MDA-MB-231),"IC50 [2, 4]",IC50 [3]
COc1ccc(S(=O)(=O)Nc2ccccc2C#Cc2ccc(C(=O)N(C)C)nc2)c2ncccc12 [Compound 217],< 1 µM,1 to 100 µM,< 1 µM,< 1 µM
"O=C(O)c1ccc(C#Cc2ccccc2NS(=O)(=O)c2cnc(Cl)c(Br)c2)cc1 [Compound 34, 4-{2-[2-(5-bromo-6-chloropyridine-3-sulfonamido)phenyl]ethynyl}benzoic acid]",–,1 to 100 µM,–,–
"COC(=O)c1ccc(C#Cc2ccccc2N(Cc2ccc3ccccc3c2)C(N)=O)cn1 [Compound 140, methyl 5-[2-(2-{carbamoyl[(naphthalen-2-yl)methyl]amino}phenyl)ethynyl]pyridine-2-carboxylate]",–,0.1 to 1 µM,–,–
"CCN(c1ccccc1C#Cc1ccc(C(=O)O)cc1)S(=O)(=O)c1ccc2ccccc2c1 [Compound 36, 4-{2-[2-(N-ethylnaphthalene-2-sulfonamido)phenyl]ethynyl}benzoic acid]",–,1 to 100 µM,–,–
"Cc1ccc2cccnc2c1S(=O)(=O)Nc1ccc(N(C)C)cc1C#Cc1ccc(C(=O)O)nc1 [Compound 248, 5-{2-[5-(dimethylamino)-2-(7-methylquinoline-8-sulfonamido)phenyl]ethynyl}pyridine-2-carboxylic acid]",–,0.1 to 1 µM,–,–
"O=C(O)c1ccc(C#Cc2ccccc2NS(=O)(=O)c2ccc(Br)c3ccccc23)cn1 [Compound 128, 5-{2-[2-(4-bromonaphthalene-1-sulfonamido)phenyl]ethynyl}pyridine-2-carboxylic acid]",–,0.1 to 1 µM,–,–

# The remaining lines, values ahead:
IC50 [1],IC50 ([2]; MDA-MB-231),"IC50 [2, 4]",IC50 [3],Compound
< 1 µM,0.1 to 1 µM,< 1 µM,< 1 µM,"Cc1ccc2cccnc2c1S(=O)(=O)Nc1ccccc1C#Cc1cnc(C(=O)O)c2ccccc12 [Compound 208, 4-{2-[2-(7-methylquinoline-8-sulfonamido)phenyl]ethynyl}isoquinoline-1-carboxylic acid]"
–,0.001 to 0.01 µM,–,–,"CCOc1ccc(S(=O)(=O)Nc2ccccc2C#Cc2cnc(C(=O)O)c(CC)c2)c2ncccc12 [Compound 371, 5-[2-(5-Ethoxy-quinoline-8-sulfonylamino)-phenylethynyl]-3-ethyl-pyridine-2-carboxylic acid]"
–,0.1 to 1 µM,–,–,"O=C(O)c1ccc(C#Cc2ccccc2NS(=O)(=O)c2ccc3ccccc3c2)cc1Cl [Compound 28, 2-chloro-4-{2-[2-(naphthalene-2-sulfonamido)phenyl]ethynyl}benzoic acid]"
–,0.01 to 0.1 µM,–,–,"O=C(O)c1ccc(C#Cc2ccccc2NS(=O)(=O)c2ccc3c(c2)Cc2ccccc2-3)cn1 [Compound 92, 5-{2-[2-(9H-fluorene-2-sulfonamido)phenyl]ethynyl}pyridine-2-carboxylic acid]"
